# According to patent US12433903B2 (priority 2021, dated 2025):
# Legend:
# rUGT2B7 = target: T1, rUGT2B7 (Homo sapiens, UniProt P16662); assay: Inhibition of CBG glucuronidation by Compound 1, rUGT2B7; format: in vitro ADME
# T1 sequence (P16662 24-529): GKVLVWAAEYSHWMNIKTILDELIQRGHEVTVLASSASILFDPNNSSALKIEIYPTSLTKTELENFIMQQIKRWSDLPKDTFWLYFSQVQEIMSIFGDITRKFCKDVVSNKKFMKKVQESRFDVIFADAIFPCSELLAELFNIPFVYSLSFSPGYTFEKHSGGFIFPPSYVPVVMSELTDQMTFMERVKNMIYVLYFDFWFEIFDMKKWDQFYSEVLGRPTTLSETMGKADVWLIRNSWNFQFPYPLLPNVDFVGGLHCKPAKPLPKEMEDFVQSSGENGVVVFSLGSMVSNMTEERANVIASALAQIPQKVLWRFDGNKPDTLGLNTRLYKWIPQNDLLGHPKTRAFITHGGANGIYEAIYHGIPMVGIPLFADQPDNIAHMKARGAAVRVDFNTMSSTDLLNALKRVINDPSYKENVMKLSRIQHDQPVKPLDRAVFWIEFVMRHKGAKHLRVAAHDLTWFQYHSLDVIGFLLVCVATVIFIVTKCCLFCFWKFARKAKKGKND
# Method: The purpose of this experiment was to determine if Compound 1 can inhibit the glucuronidation of CBG, as both are substrates for the two major isoforms responsible for CBG glucuronidation.
# The ability of Compound 1 to inhibit the metabolism of CBG by UGT1A9 and UGT2B7 enzymes was investigated to ascertain the IC50 values for direct inhibition. The incubation conditions (substrate concentration, incubation time and protein concentration) were determined in Part 2 of the protocol such that CBG metabolism remains near initial rate conditions (e.g., 20-30% substrate loss).
# Preliminary experiments were conducted in Part I of the protocol, first to establish the HPLC/MS/MS bioanalytical methods for CBG and CBG glucuronide. […] The second set of preliminary experiments (Part 2), as mentioned, were conducted to optimize the incubation conditions as described above. Incubations (at 37° C.) contained Tris-HCl buffer (100 mM, pH 7.7), MgCl2 (10 mM), EDTA (1 mM, pH 7.4) and UDP-glucuronic acid (UDPGA, 10 mM). CBG was added to each incubation in DMSO such that the final percent of DMSO was 1% v/v, or less. Reactions were terminated by the addition of an equal volume of stop reagent, acetonitrile containing an internal standard. The samples were centrifuged (e.g., 920 RCF for 10 minutes at 10° C.), and the supernatant fractions were analyzed by LC-MS/MS to determine the amount of CBG remaining and formation of one metabolite (CBG glucuronide).
# To examine its ability to act as a direct inhibitor of the above listed enzymes, Compound 1 was be added to recombinant human UGT enzyme together with CBG. Reactions were initiated with UDPGA and were carried out in duplicate. For all assays, reactions were terminated by the addition of acetonitrile with or without 2% v/v formic acid, including the internal standard.
# Authentic metabolite reference standards were used for quantitation of the probe substrate metabolites and as internal standards. Based on the information obtained in the Part 2 experiments, the following table summarizes the experiments performed, assessing the inhibitory effects of Compound 1 was conducted as follows:
# The amounts of CBG present at the end of the incubation periods was determined. For inhibition to have occurred, the amounts of CBG present at the end of the incubation period needed to increase, and the amounts of glucuronide formed needed to decrease.
# [1] = test system: p-cMyc(S62), cMyc, p-AKT(S473), AKT, p-ERK(T202/Y204), ERK in SW620, HCT15, HCT116 cells; assay: Target engagement by Western blot in colon cancer cell lines; format: cell-based; details: HCT 116 cells; 10-80 μM, 3 hours; with a dose effect
# Method: For Western blot, the compounds were tested at 4 concentrations for 3 hours on 3 colon cancer cell lines. The compounds, concentrations, colon cancer cell line panel, and antibodies panel tested are the following: • CBG: 0 μM, 10 μM, 20 μM, 40 μM, and 80 μM. • Compound 1: 0 μM, 10 μM, 20 μM, 40 μM, and 80 μM. • Compound 2: 0 μM, 10 μM, 20 μM, 40 μM, and 80 μM. • Colon cancer cell line panel: SW620, HCT15, HCT116 • Antibodies panel: p-cMYC(S62), cMyc, p-AKT(S473), AKT, p-ERK(T202/Y204), ERK Methods
# Evaluation of target engagement was performed to determine the expression of specific marker protein expression and underlying signaling pathways with Western blot.
# Western blot. Whole cell extracts were prepared by incubating cell pellets in IP lysis buffer supplemented with protease and phosphatase inhibitors (Roche). Isolated protein was quantified by Pierce BCA Protein assay (ThermoFisher). Equal quantities of protein were separated by 4-15% SDS-PAGE electrophoresis gels and transferred onto nitrocellulose membranes. Membranes was blocked with 5% nonfat milk in Tris-buffered saline-Tween buffer. […]
# [2] = 10 μM CBG + 0.01 μM Compound 1, 5 min
# [3] = 10 μM CBG + 0.03 μM Compound 1, 5 min
# [4] = 10 μM CBG + 0.1 μM Compound 1, 5 min
# [5] = 10 μM CBG + 0.3 μM Compound 1, 5 min
# [6] = 10 μM CBG + 1 μM Compound 1, 5 min
# [7] = 10 μM CBG + 3 μM Compound 1, 5 min
# [8] = 10 μM CBG + 10 μM Compound 1, 5 min
structure (smiles),measurement,setting,value
"CCCCCc1cc(O)c(C/C=C(\C)CCC=C(C)C)c(OC)c1 [Compound 1, (E)-2-(3,7-dimethylocta-2,6-dien-1-yl)-3-methoxy-5-pentylphenol]",CBG detected (CBG loss),rUGT2B7; [2],1370 pmol
same,"CBG detected, Percent of control",rUGT2B7; [2],103
same,CBG glucuronide formed,rUGT2B7; [2],260000 area ratio
same,"CBG glucuronide formed, Percent of control",rUGT2B7; [2],104
same,CBG detected (CBG loss),rUGT2B7; [3],1460 pmol
same,"CBG detected, Percent of control",rUGT2B7; [3],109
same,"CBG glucuronide formed, Percent of control",rUGT2B7; [3],101
same,CBG detected (CBG loss),rUGT2B7; [4],1410 pmol
same,"CBG detected, Percent of control",rUGT2B7; [4],106
same,"CBG glucuronide formed, Percent of control",rUGT2B7; [4],103
same,CBG detected (CBG loss),rUGT2B7; [5],1450 pmol
same,"CBG detected, Percent of control",rUGT2B7; [5],109
same,"CBG glucuronide formed, Percent of control",rUGT2B7; [5],105
same,CBG detected (CBG loss),rUGT2B7; [6],1460 pmol
same,"CBG detected, Percent of control",rUGT2B7; [6],109
same,"CBG glucuronide formed, Percent of control",rUGT2B7; [6],102
same,CBG detected (CBG loss),rUGT2B7; [7],1440 pmol
same,"CBG detected, Percent of control",rUGT2B7; [7],108
same,"CBG glucuronide formed, Percent of control",rUGT2B7; [7],101
same,CBG detected (CBG loss),rUGT2B7; [8],1470 pmol
same,"CBG detected, Percent of control",rUGT2B7; [8],111
same,"CBG glucuronide formed, Percent of control",rUGT2B7; [8],96.0
same,metabolism of CBG in the presence of Compound 1 (in words),"rUGT2B7; 0.01-10 μM Compound 1, CBG disappearance or glucuronide formation",essentially unchanged
same,pAKT(S473) (Western blot),[1],down-regulated
